# Activity calls are given as the source filed them. The rule behind the calls is not given here.
# Tests used:
# [1] = system: Mus musculus; assay: Antipsychotic activity in mouse at 30 mg/kg, ip administered 15 mins prior to testing by SmartCube automated system based method relative to standard compound; format: functional
# [2] = system: Mus musculus; assay: Antipsychotic activity in mouse at 3 to 30 mg/kg, ip dosed 15 mins prior to testing by SmartCube automated system based method relative to standard compound; format: functional, organism-based
# [3] = system: Mus musculus; assay: Antipsychotic activity in ip dosed mouse administered 15 mins prior to testing by SmartCube automated system based method; format: functional; conditions: for minimal effective dose: Mus musculus, ip, read-out: MED
# [4] = target: D(2) dopamine receptor (Homo sapiens) (UniProt P14416); assay: Displacement of [3H]methyl-spiperone from human recombinant D2 receptor expressed in HEK293 cells at 30 uM after 60 mins by scintillation counting analysis; format: cell-based
# D(2) dopamine receptor (Homo sapiens), sequence (P14416 whole entry): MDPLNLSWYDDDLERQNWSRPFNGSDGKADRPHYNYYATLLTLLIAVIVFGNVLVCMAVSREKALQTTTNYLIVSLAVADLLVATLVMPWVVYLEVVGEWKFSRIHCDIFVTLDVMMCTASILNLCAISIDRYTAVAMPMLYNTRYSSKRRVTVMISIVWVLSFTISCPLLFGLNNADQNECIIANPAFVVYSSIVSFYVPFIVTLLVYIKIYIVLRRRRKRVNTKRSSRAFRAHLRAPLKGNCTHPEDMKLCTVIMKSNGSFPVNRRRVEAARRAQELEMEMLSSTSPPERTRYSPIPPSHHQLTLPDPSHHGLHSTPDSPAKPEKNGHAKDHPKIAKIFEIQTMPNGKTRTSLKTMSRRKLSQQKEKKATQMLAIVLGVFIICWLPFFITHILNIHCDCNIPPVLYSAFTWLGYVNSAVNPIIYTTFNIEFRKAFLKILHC
# [5] = target: CYP1A (Homo sapiens, UniProt P04798+P05177); assay: Inhibition of CYP1A in human liver microsomes assessed as reduction in ethoxyresorufin o-deethylation by fluorescence assay; conditions: probe ethoxyresorufin (O-deethylation)
# [6] = system: Mus musculus; assay: Effect on basal locomotor activity in C57Bl/6J mouse at 3 mg/kg, po; format: ADME, organism-based; conditions: in vivo
# [7] = system: Mus musculus; assay: Antipsychotic-like activity in C57Bl/6J mouse model of schizophrenia assessed as reversal of phencyclidine-induced locomotor activity at 3 to 30 mg/kg, po dosed 30 mins before administration of PCP measured for 60 mins by open field test; format: functional, organism-based
# [8] = system: Liver microsome; assay: Drug metabolism in human liver microsomes assessed as formation of 4-(2-methylbenzo[b]thiophen-3-yl)pyrimidineat 3 uM in presence of NADPH by LC-MS/MS analysis; format: ADME
# [9] = target: 5-hydroxytryptamine receptor 7 (Homo sapiens) (UniProt P34969); assay: Displacement of [3H]LSD from human recombinant 5-HT7 receptor expressed in CHO cells at 10 uM after 120 mins by scintillation counting analysis; format: cell-based
# [10] = target: Sodium-dependent serotonin transporter (Homo sapiens) (UniProt P31645); assay: Displacement of [3H]imipramine from human recombinant 5-HT transporter expressed in CHO cells at 10 uM after 60 mins by scintillation counting analysis; format: cell-based
# [11] = target: Histamine H1 receptor (Homo sapiens) (UniProt P35367); assay: Displacement of [3H]pyrilamine from human recombinant H1 receptor expressed in HEK293 cells at 10 uM after 60 mins by scintillation counting analysis; format: cell-based
# Histamine H1 receptor (Homo sapiens), sequence (P35367 whole entry): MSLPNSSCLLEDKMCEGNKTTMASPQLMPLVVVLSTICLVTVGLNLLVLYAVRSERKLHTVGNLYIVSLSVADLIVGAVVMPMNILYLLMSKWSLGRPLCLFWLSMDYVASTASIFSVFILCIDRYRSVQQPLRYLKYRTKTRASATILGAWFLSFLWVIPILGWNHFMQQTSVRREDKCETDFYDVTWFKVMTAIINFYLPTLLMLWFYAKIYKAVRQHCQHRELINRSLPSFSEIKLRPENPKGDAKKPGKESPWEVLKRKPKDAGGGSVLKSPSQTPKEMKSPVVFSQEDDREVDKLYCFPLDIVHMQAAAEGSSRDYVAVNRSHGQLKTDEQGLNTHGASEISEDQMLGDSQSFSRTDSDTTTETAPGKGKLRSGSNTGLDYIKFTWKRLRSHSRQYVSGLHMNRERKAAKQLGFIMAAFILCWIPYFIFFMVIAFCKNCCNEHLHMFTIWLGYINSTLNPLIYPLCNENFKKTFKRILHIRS
# [12] = target: 5-hydroxytryptamine receptor 6 (Homo sapiens) (UniProt P50406); assay: Displacement of [3H]LSD from human recombinant 5-HT6 receptor expressed in CHO cells at 10 uM after 120 mins by scintillation counting analysis; format: cell-based
# 5-hydroxytryptamine receptor 6 (Homo sapiens), sequence (P50406 whole entry): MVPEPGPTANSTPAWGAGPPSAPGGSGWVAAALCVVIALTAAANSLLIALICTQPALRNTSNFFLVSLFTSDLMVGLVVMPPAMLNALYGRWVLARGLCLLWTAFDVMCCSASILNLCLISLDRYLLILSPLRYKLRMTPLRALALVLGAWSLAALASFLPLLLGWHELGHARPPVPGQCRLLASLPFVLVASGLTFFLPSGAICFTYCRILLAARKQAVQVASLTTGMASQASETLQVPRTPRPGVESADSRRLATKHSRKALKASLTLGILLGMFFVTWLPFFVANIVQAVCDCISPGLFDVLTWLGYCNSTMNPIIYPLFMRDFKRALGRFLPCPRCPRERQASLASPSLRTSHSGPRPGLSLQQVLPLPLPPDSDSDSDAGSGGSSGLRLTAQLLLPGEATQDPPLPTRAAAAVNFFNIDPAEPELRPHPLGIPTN
# [13] = Fraction unbound in mouse plasma at 5 uM by LC-MS/MS based equilibrium dialysis method; format: ADME, cell-free
# [14] = system: Mus musculus; assay: Antipsychotic activity in mouse at 10 mg/kg, ip administered 15 mins prior to testing by SmartCube automated system based method relative to standard compound; format: functional, organism-based
# [15] = Half life in rat liver microsomes at 3 uM in presence of NADPH by LC-MS/MS analysis; format: ADME
# [16] = system: Mus musculus; assay: Antipsychotic activity in C57Bl/6J mouse model of schizophrenia assessed as increase in prepulse inhibition of acoustic startle at 3 to 10 mg/kg, po administered 30 mins prior to testing relative to vehicle-treated control; format: functional, organism-based
# [17] = target: Sodium-dependent dopamine transporter (Homo sapiens) (UniProt Q01959); assay: Displacement of [3H]BTCP from human recombinant dopamine transporter expressed in CHO cells at 10 uM after 120 mins by scintillation counting analysis; format: cell-based
# [18] = target: Cytochrome P450 2C19 (Homo sapiens, UniProt P33261); assay: Inhibition of CYP2C19 in human liver microsomes assessed as reduction in S-mephenytoin 4-hydroxylation by LC-MS/MS analysis; format: ADME
# Cytochrome P450 2C19, sequence (P33261 whole entry): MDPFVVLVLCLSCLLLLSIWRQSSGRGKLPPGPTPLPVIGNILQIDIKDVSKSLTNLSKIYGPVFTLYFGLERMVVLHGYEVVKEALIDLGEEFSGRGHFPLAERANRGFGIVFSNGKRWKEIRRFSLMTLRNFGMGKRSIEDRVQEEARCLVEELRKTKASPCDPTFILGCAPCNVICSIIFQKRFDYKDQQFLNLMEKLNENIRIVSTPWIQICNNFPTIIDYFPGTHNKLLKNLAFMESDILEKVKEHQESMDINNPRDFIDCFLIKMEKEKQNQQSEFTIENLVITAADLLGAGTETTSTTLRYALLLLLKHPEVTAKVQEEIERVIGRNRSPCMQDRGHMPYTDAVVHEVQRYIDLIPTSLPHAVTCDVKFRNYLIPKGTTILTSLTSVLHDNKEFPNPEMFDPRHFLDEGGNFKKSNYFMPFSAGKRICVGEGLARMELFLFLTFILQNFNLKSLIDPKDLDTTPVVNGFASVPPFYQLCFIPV
# [19] = target: D(2) dopamine receptor (Homo sapiens) (UniProt P14416); assay: Displacement of [3H]methyl-spiperone from human recombinant D2 receptor expressed in HEK293 cells at 10 uM after 60 mins by scintillation counting analysis; format: cell-based
# [20] = target: 5-hydroxytryptamine receptor 2B (Homo sapiens) (UniProt P41595); assay: Displacement of [3H]mesulergine from human recombinant 5-HT2B receptor expressed in CHO cells at 10 uM after 60 mins by scintillation counting analysis; format: cell-based
# 5-hydroxytryptamine receptor 2B (Homo sapiens), sequence (P41595 whole entry): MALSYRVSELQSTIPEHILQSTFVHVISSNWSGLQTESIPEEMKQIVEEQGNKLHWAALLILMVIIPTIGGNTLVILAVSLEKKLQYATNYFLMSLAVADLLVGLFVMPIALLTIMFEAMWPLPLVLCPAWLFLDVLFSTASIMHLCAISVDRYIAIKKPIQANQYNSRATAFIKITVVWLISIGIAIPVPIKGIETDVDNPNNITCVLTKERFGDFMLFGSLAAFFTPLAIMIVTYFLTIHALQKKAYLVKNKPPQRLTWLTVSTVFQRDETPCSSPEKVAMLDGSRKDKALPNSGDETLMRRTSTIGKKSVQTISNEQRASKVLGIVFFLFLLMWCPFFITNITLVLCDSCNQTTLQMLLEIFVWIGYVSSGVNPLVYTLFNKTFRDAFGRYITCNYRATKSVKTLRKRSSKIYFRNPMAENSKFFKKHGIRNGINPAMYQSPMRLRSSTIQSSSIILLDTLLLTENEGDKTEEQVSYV
# [21] = target: T1, 5-hydroxytryptamine receptor 2A (Homo sapiens, UniProt P28223); assay: Antagonist activity at 5HT2A (unknown origin)
# T1 sequence (P28223 whole entry): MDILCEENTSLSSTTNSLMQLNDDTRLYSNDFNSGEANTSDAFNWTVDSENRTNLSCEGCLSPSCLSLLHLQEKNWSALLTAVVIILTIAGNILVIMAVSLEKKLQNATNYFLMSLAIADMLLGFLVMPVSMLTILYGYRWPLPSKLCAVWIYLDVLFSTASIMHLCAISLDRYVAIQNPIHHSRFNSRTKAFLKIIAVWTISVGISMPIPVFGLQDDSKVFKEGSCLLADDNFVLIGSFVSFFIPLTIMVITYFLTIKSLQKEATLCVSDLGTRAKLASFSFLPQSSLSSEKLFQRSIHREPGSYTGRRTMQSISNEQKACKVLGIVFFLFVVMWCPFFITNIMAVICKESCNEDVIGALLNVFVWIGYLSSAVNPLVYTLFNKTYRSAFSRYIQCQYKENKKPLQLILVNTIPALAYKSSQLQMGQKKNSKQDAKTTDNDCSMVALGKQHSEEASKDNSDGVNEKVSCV
# [22] = Chemical stability of the compound in 20 mM NH4Ac buffer solution at pH 7.1 after 96 hrs by HPLC analysis; format: physicochemical; conditions: pH 7.1, 96 h
# [23] = target: Sodium-dependent noradrenaline transporter (Homo sapiens) (UniProt P23975); assay: Displacement of [3H]nisoxetine from human recombinant norepinephrine transporter expressed in CHO cells at 10 uM after 120 mins by scintillation counting analysis; format: cell-based
# [24] = Half life in mouse liver microsomes at 3 uM in presence of NADPH by LC-MS/MS analysis; format: ADME
# [25] = target: 5-hydroxytryptamine receptor 3A (Homo sapiens) (UniProt P46098); assay: Displacement of [3H]BRL 43694 from human recombinant 5-HT3 receptor expressed in CHO cells at 10 uM after 120 mins by scintillation counting analysis; format: cell-based
# 5-hydroxytryptamine receptor 3A (Homo sapiens), sequence (P46098 whole entry): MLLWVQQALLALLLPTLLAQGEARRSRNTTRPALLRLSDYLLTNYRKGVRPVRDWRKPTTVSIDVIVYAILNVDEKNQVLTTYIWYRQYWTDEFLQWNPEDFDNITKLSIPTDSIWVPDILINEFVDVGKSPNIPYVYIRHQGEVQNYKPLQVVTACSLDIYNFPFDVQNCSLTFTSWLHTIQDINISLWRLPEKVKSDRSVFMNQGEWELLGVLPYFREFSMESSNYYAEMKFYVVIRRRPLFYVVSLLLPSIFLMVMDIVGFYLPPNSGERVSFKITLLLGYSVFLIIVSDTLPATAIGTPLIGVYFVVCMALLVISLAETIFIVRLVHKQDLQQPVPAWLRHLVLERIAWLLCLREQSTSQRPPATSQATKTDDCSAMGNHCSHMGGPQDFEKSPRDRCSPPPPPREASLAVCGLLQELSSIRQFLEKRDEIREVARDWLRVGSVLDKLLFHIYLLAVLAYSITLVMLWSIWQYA
# [26] = target: Cytochrome P450 2D6 (Homo sapiens, UniProt P10635); assay: Inhibition of CYP2D6 in human liver microsomes assessed as reduction in dextromethorphan o-demethylation by LC-MS/MS analysis; format: ADME
# [27] = Chemical stability of the compound in 0.01 M HCl at pH 2 after 96 hrs by HPLC analysis; format: physicochemical; conditions: buffer, pH 2, 96 h
# [28] = target: Voltage-gated inwardly rectifying potassium channel KCNH2 (Homo sapiens, UniProt Q12809); assay: Inhibition of human ERG; conditions: human
# Voltage-gated inwardly rectifying potassium channel KCNH2, sequence (Q12809 whole entry): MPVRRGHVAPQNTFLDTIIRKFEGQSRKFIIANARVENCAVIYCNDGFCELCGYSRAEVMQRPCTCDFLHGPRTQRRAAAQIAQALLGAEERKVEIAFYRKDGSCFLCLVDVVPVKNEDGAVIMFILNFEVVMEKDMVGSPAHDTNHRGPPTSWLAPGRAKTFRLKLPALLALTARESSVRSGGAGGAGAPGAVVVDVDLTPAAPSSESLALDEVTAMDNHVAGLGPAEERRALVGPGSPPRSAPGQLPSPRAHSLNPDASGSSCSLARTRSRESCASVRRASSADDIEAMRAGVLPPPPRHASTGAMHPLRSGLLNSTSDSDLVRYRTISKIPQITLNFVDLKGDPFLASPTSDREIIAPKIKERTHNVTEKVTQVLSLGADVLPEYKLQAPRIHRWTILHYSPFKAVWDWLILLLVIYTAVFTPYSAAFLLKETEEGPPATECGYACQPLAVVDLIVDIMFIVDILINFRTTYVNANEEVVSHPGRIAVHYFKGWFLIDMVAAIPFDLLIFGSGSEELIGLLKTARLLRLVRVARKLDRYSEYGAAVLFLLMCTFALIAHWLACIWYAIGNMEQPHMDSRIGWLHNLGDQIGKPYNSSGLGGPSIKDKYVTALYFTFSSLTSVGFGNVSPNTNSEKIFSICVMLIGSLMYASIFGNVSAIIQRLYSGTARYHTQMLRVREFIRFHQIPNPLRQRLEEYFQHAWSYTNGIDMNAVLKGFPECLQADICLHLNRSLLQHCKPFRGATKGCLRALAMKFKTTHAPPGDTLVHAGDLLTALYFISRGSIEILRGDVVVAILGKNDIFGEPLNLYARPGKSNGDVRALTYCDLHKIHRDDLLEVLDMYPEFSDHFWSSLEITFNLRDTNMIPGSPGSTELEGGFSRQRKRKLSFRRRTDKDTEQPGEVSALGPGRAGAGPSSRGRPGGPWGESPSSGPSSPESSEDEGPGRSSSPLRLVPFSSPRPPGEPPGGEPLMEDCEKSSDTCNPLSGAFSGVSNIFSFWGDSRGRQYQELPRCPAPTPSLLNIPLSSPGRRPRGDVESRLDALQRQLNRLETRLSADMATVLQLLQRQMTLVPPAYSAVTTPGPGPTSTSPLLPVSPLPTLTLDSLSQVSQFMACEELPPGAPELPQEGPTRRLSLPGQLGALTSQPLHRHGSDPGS
# [29] = system: Mus musculus; assay: Effect on basal locomotor activity in C57Bl/6J mouse at 10 to 30 mg/kg, po; format: ADME, organism-based; conditions: in vivo
# [30] = Drug metabolism in mouse liver microsomes assessed as formation of 4-(2-methylbenzo[b]thiophen-3-yl)pyrimidineat 3 uM in presence of NADPH by LC-MS/MS analysis; format: ADME
# [31] = target: Adrenergic receptor alpha-2 (Rattus norvegicus) (UniProt P22086+P19328+P22909); assay: Displacement of [3H]RX 821002 from rat cerebral cortex adrenergic alpha2 receptor at 10 uM after 60 mins by scintillation counting analysis; format: tissue-based
# [32] = target: Cytochrome P450 2C9 (Homo sapiens, UniProt P11712); assay: Inhibition of CYP2C9 in human liver microsomes assessed as reduction in tolbutamide 4-hydroxylation by LC-MS/MS analysis; format: ADME
# [33] = target: Cytochrome P450 3A4 (Homo sapiens, UniProt P08684); assay: Inhibition of CYP3A4 in human liver microsomes assessed as reduction in midazolam 1-hydroxylation/testosterone 6beta-hydroxylation by LC-MS/MS analysis; format: ADME
# [34] = target: D(1A) dopamine receptor (Homo sapiens) (UniProt P21728); assay: Displacement of [3H]SCH 23390 from human recombinant D1 receptor expressed in CHO cells at 10 uM after 60 mins by scintillation counting analysis; format: cell-based
# D(1A) dopamine receptor (Homo sapiens), sequence (P21728 whole entry): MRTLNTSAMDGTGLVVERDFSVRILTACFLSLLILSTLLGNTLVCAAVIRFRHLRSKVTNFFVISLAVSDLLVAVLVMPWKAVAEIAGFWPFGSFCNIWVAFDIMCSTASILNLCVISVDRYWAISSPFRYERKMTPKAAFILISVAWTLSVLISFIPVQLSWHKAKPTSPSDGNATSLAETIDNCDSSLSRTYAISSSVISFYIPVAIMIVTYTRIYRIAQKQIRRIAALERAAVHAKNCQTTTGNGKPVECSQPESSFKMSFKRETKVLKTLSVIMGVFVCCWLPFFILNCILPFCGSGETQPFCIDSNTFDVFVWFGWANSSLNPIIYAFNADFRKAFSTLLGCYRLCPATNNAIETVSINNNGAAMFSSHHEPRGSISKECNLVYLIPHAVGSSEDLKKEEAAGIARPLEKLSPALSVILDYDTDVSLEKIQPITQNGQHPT
# [35] = Fraction unbound in human plasma at 5 uM by LC-MS/MS based equilibrium dialysis method; format: ADME, cell-free
# [36] = target: T1, 5-hydroxytryptamine receptor 2A; assay: Displacement of [3H]ketanserin from human recombinant 5-HT2A receptor expressed in HEK293 cells at 10 uM after 60 mins by scintillation counting analysis; format: cell-based
# [37] = Solubility of the compound at pH 7.4; format: physicochemical; conditions: buffer
# [38] = target: Adrenergic receptor alpha-1 (Rattus norvegicus) (UniProt P15823+P23944+P43140); assay: Displacement of [3H]prazosin from rat cerebral cortex adrenergic alpha1 receptor at 10 uM after 60 mins by scintillation counting analysis; format: tissue-based
# [39] = Half life in human liver microsomes at 3 uM in presence of NADPH by LC-MS/MS analysis; format: ADME
# [40] = Drug metabolism in mouse liver microsomes assessed as formation of 4-(3,4-dimethylthiophen-2-yl)pyrimidine at 3 uM in presence of NADPH by LC-MS/MS analysis; format: ADME
# [41] = system: Liver microsome; assay: Drug metabolism in human liver microsomes assessed as formation of 4-(3,4-dimethylthiophen-2-yl)pyrimidine at 3 uM in presence of NADPH by LC-MS/MS analysis; format: ADME
smiles,measurement,setting,value
CC1=CN=CNC1c1sc2ccccc2c1C (stereo unspecified),Activity,[1],Active
Cc1csc(C2C=CN=CN2)c1C (stereo in doubt; 12a),Activity,[2],Active
Fc1c(C2NC=Nc3ccccc32)sc2ccccc12 (stereo unspecified),Activity,[1],Active
CC1=CN=CNC1c1c(C)sc2ccccc12.Cl (stereo unspecified),minimal effective dose,[3],30 mg/kg
Cc1csc(C2C=CN=CN2)c1C (stereo unspecified),Activity,[1],Active
same,inhibition,[4],18%
Cc1sc2ccccc2c1C1NC=Nc2cc(F)ccc21.Cl (stereo unspecified),minimal effective dose,[3],30 mg/kg
Cc1csc(-c2ccncn2)c1C,Activity,[2],Active
Cc1sc2c(F)cccc2c1C1C=CN=CN1.Cl (stereo unspecified),minimal effective dose,[3],10 mg/kg
Cl.Fc1sc2ccccc2c1C1NC=NC=C1Cl (stereo unspecified),minimal effective dose,[3],30 mg/kg
Cl.Fc1ccc(-c2ccc(C3C=CN=CN3)s2)cc1 (stereo unspecified),minimal effective dose,[3],3 mg/kg
Cc1sc2cccc(F)c2c1C1C=CN=CN1.Cl (stereo unspecified),minimal effective dose,[3],3 mg/kg
Cc1sc2ccccc2c1[C@@H]1C=CN=CN1,IC50,[5],6.9 µM
same,Activity,[6],Non-toxic
same,Activity,[7],Active
same,Drug metabolism,[8],metabolite_notdetected
same,Activity,[1],Active
same,inhibition,[9],94%
same,inhibition,[10],94%
same,inhibition,[11],86%
same,inhibition,[12],61%
same,fraction unbound at 5 µM,[13],0.18
same,Activity,[14],Active
same,half-life at 3 µM,[15],0.483 h
same,Activity,[16],Active
same,inhibition,[17],78%
same,IC50,[18],25 µM
same,inhibition,[19],0%
same,inhibition,[20],81%
same,IC50,[21],0.356 µM
same,Stability,[22],Stable
same,inhibition,[23],51%
same,half-life at 3 µM,[24],4.03 h
same,inhibition,[25],64%
same,IC50,[26],3.1 µM
same,Stability,[27],Stable
same,IC50,[28],> 25 µM
same,Activity,[29],Toxic
same,Drug metabolism,[30],metabolite_notdetected
same,inhibition,[31],97%
same,IC50,[32],6.9 µM
same,IC50,[33],11 µM
same,inhibition,[34],77%
same,fraction unbound at 5 µM,[35],0.3
same,inhibition,[36],99%
same,solubility,[37],> 100 µg/mL
same,inhibition,[38],88%
same,half-life at 3 µM,[39],2.28 h
Cc1sc2ccccc2c1C1C=CN=CN1.Cl (stereo unspecified),minimal effective dose,[3],3 mg/kg
Cc1sc2ccc(Cl)cc2c1C1C=CN=CN1.Cl (stereo unspecified),minimal effective dose,[3],3 mg/kg
Cc1csc(C2C=CN=CN2)c1C.Cl (stereo in doubt; 12a),Drug metabolism,[40],metabolite_notdetected
same,Stability,[22],Unstable
same,MED,[3],3 mg/kg
same,Stability,[27],Stable
same,Drug metabolism,[41],metabolite_notdetected
Cc1csc(C2C=CN=CN2)c1C.Cl (stereo in doubt; 12b),MED,[3],30 mg/kg

# Source: ChEMBL document CHEMBL3822388, “In vivo phenotypic drug discovery: applying a behavioral assay to the discovery and optimization of novel antipsychotic agents” (Medchemcomm, 2016)
